Among the data in patent US20040127492A1 (Pharmacia Corporation, priority 2002, published 2004) are IC50 values, retold here.

Structures are written as SMILES. Read-outs that look alike come from different tables or passages of the source.

The target of one experiment is MK-3 (Homo sapiens, UniProt Q16644). Description: MK-3 inhibition IC50 (similar method to MK-2, with appropriate modifications). Type of experiment: biochemical.
The next experiment deals with MAPKAPK2 (MK-2) (Homo sapiens, UniProt P49137). Description: Determination of MK-2 IC50 (HSP-peptide phosphorylation, anion exchange resin capture assay). Type of experiment: biochemical. The method in brief:
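MAPKAPK2, preactivated by p38α with 0.25 mM ATP for 1 h at 30° C, used at 15 nM to phosphorylate HSP-peptide with 0.03 mM ATP plus [γ33P]ATP, pH 7.5, 2% DMSO, 30 min at 30° C. Labelled peptide counted after anion-exchange resin capture; IC50 from six ten-fold dilutions, triplicate.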

[1] abbreviates: Table 2, pyrazolylpyrazole MK-2 inhibitors, read-out: MK-3 Avg. IC50.
[2] abbreviates: Table 2, pyrazolylpyrazole MK-2 inhibitors, read-out: MK-2 Avg. IC50.
[3] abbreviates: Table 1, phenoxypyrazole MK-2 inhibitors, read-out: MK-3 Avg. IC50.
Where [4] appears, read: Table 1, phenoxypyrazole MK-2 inhibitors, read-out: MK-2 Avg, IC50.
Where [5] appears, read: Table 5, other cyclic pyrazole MK-2 inhibiting compounds, read-out: MK-3 Avg. IC50.
The mark [6] stands for this setting: Table 5, other cyclic pyrazole MK-2 inhibiting compounds, read-out: MK-2 Avg. IC50.

MAPKAPK2 (MK-2), sequence (P49137 whole entry, species assumed): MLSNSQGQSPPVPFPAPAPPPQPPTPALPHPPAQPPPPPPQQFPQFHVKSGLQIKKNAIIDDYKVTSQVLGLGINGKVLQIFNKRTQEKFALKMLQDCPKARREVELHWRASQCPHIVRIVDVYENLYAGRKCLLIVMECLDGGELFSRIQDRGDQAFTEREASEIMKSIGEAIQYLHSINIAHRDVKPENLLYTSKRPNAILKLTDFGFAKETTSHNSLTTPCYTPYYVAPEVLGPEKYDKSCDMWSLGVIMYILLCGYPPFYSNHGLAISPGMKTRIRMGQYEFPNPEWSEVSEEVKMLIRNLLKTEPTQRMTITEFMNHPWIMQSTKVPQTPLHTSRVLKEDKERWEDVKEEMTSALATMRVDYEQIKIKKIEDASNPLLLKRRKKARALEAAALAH
MK-3, sequence (Q16644 whole entry, species assumed): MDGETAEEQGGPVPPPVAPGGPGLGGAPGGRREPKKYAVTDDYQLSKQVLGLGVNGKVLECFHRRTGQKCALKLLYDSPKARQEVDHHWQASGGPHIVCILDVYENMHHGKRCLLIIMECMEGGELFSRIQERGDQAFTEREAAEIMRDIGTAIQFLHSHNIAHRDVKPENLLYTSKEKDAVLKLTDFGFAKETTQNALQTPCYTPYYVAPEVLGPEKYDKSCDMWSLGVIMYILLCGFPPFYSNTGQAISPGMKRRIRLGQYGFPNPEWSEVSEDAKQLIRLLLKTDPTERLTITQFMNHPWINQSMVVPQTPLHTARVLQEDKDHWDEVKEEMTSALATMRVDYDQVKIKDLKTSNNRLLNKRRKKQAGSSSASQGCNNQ

`CCOC(=O)c1c2c(nn1CCCNCCc1ccc(Br)cc1)-c1cn[nH]c1CC2` [Example 9]: the figures for the IC50 on MK-3 (setting [1]) and at MAPKAPK2 (MK-2) (setting [2]) were 68.1 µM and 8.54 µM, respectively.
As for `NCCCCn1nc2c(c1C(=O)O)CCc1[nH]ncc1-2` [Example 10], the IC50 – broadly, the concentration that inhibits the measured activity by half – on MK-3 (setting [1]) is ≥ 200 µM; at MAPKAPK2 (MK-2) (setting [2]), 10.1 µM.
In the case of `COC(=O)c1[nH]nc2c1CCc1cc(O)ccc1-2` [Example 181], the IC50 at MK-3 (setting [3]) and on MAPKAPK2 (MK-2) (setting [4]) was > 200 µM in each case.
Regarding `CCOC(=O)c1c2c(nn1CCNC(=O)OC(C)(C)C)-c1cnn(C(c3ccccc3)(c3ccccc3)c3ccccc3)c1CC2` [Example 59], the IC50 on MK-3 (setting [1]) and at MAPKAPK2 (MK-2) (setting [2]) was ≥ 200 µM in each case.
With `COc1cc2c(cc1-c1cccc([N+](=O)[O-])c1)-c1nn(CCCNC(=O)OC(C)(C)C)c(C(=O)O)c1CC2` [Example 37], the IC50 is > 200 µM at MK-3 (setting [3]) and 53.7 µM on MAPKAPK2 (MK-2) (setting [4]).
For the compound `NCCCn1nc2c(c1C(=O)O)CCc1cc(O)c(CCC(F)(F)F)cc1-2` [Example 12], the IC50 on MK-3 (setting [3]) amounted to 149 µM; on MAPKAPK2 (MK-2) (setting [4]), 8.11 µM.
As for `O=C1NCCn2nc3c(c21)CCc1cc(O)c(-c2cccc([N+](=O)[O-])c2)cc1-3` [Example 7], the half-inhibitory concentration (IC50) on MK-3 (setting [3]) was > 200 µM; on MAPKAPK2 (MK-2) (setting [4]), 3 µM.
For `COc1ccc2c(c1)CCc1c(C(=O)O)nn(-c3ccc(S(N)(=O)=O)cc3)c1-2` [Example 166], the IC50 on MK-3 (setting [3]) and at MAPKAPK2 (MK-2) (setting [4]) was > 200 µM throughout.
Regarding `COc1cc2c(cc1-c1ccc(F)c(F)c1)-c1nn(CCCNC(=O)OC(C)(C)C)c(C(=O)O)c1CC2` [Example 46], the IC50 is > 200 µM at MK-3 (setting [3]) and 92.7 µM at MAPKAPK2 (MK-2) (setting [4]).
In the case of `NC(=O)c1[nH]nc2c1CCc1[nH]ncc1-2` [Example 17], the IC50 at MK-3 (setting [1]) came to 129 µM; on MAPKAPK2 (MK-2) (setting [2]) it was 28.4 µM.
Turning to `O=C(O)c1c2c(nn1CCCNCCc1ccsc1)-c1cn[nH]c1CC2` [Example 8], the values for the IC50 at MK-3 (setting [1]) and at MAPKAPK2 (MK-2) (setting [2]) were 48.5 µM and 7.84 µM, respectively.
For the compound `O=C1NCCn2nc3c(c21)CCc1cnc(/C=C/c2ccc(Cl)cc2)cc1-3` [Example 6], the IC50 at MK-3 (setting [5]) is > 20 µM; at MAPKAPK2 (MK-2) (setting [6]) it was 0.536 µM.
Consider `COc1ccc(-c2cc3c(cn2)CCc2c-3nn3c2C(=O)NCCC3)cc1OC` [Example 43], for which the values for the IC50 at MK-3 (read-out: MK-3 Avg. IC50) and at MAPKAPK2 (MK-2) (read-out: MK-2 Avg. IC50) were 15.8 µM and 0.288 µM, respectively.
Take `O=C(NCCO)c1[nH]nc2c1CCc1cc(O)ccc1-2` [Example 73]: the IC50 on MK-3 (setting [3]) was > 200 µM; on MAPKAPK2 (MK-2) (setting [4]), 184 µM.
On to `O=C1NCCn2nc3c(c21)CCc1cnc(N2Cc4ccccc4C2)cc1-3` [Example 157], for which the figures for the IC50 on MK-3 (read-out: MK-3 Avg. IC50) and on MAPKAPK2 (MK-2) (read-out: MK-2 Avg. IC50) were 45.4 µM and 9.58 µM, respectively.
On to `NCCn1nc2c(c1C(=O)O)CCc1cnc(/C=C/c3ccccc3)cc1-2` [Example 37], for which the IC50 at MK-3 (setting [5]) amounted to 1.21 µM; at MAPKAPK2 (MK-2) (setting [6]), 0.0413 µM.
Regarding `COC(=O)c1nn(-c2ccc(S(C)(=O)=O)cc2)c2c1CCc1cc(OC)ccc1-2` [Example 164], the half-maximal inhibitory concentration (IC50) at MK-3 (setting [3]) and at MAPKAPK2 (MK-2) (setting [4]) was > 200 µM throughout.
As for `CCOC(=O)c1c2c(nn1CCCN)-c1cc(/C=C/c3ccccc3)ncc1CC2` [Example 38], the IC50 at MK-3 (setting [5]) is > 20 µM; at MAPKAPK2 (MK-2) (setting [6]), 3.61 µM.
On to `CCOC(=O)c1nn(-c2ccccc2)c2c1CCc1[nH]ncc1-2` [Example 54], for which the IC50 is ≥ 200 µM at MK-3 (setting [1]) and ≥ 200 µM against MAPKAPK2 (MK-2) (MK-2 Avg. IC50 (uM), Table 2, pyrazolylpyrazole MK-2 inhibitors).
Take `N#Cc1cccc(-c2cc3c(cn2)CCc2c-3nn(CCCN)c2C(=O)O)c1` [Example 8]: the IC50 at MK-3 (read-out: MK-3 Avg. IC50) came to 0.226 µM; on MAPKAPK2 (MK-2) (read-out: MK-2 Avg. IC50), 0.0302 µM.
Turning to `COc1cc2c(cc1-c1cccc(C(F)(F)F)c1)-c1nn(CCCNC(=O)OC(C)(C)C)c(C(=O)O)c1CC2` [Example 41], the IC50 at MK-3 (setting [3]) was > 200 µM; on MAPKAPK2 (MK-2) (setting [4]), 63.8 µM.
Take `NS(=O)(=O)c1ccc(-n2nc(C(=O)O)c3c2-c2cn[nH]c2CC3)cc1` [Example 40]: the results for the half-maximal inhibitory concentration (IC50) on MK-3 (setting [1]) and at MAPKAPK2 (MK-2) (setting [2]) were ≥ 200 µM and 145 µM, respectively.
On to `CNC(=O)c1[nH]nc2c1CCc1cc(O)ccc1-2` [Example 69], for which the IC50 is > 200 µM at MK-3 (setting [3]) and 176 µM on MAPKAPK2 (MK-2) (setting [4]).
For `C=CCn1nc2c(c1C(=O)O)CCc1[nH]ncc1-2` [Example 15], the IC50 at MK-3 (setting [1]) worked out at 134 µM; on MAPKAPK2 (MK-2) (setting [2]), 22.7 µM.
Consider `CC1Cc2cc(O)ccc2-c2n[nH]c(C(=O)O)c21` (stereo not drawn) [Example 59], for which the IC50 at MK-3 (setting [3]) is > 200 µM; at MAPKAPK2 (MK-2) (setting [4]), 148 µM.
On to `COC(=O)c1c2c(nn1CCNC(=O)OC(C)(C)C)-c1cc(Br)c(OC)cc1CC2` [Example 185], for which the IC50 on MK-3 (setting [3]) and on MAPKAPK2 (MK-2) (setting [4]) was > 200 µM in each case.
As for `CCOC(=O)c1[nH]nc2c1CCc1cc(O)ccc1-2` [Example 70], the 50% inhibitory concentration (IC50) at MK-3 (setting [3]) is > 200 µM; on MAPKAPK2 (MK-2) (setting [4]) it was 176 µM.
`COc1cc2c(cc1OC)-c1n[nH]c(C(=O)O)c1CC2` [Example 173]: the IC50 on MK-3 (setting [3]) and at MAPKAPK2 (MK-2) (setting [4]) was > 200 µM throughout.
With `CCOC(=O)c1[nH]nc2c1CCc1c-2ccc(O)c1Br` [Example 53], the results for the IC50 at MK-3 (setting [3]) and on MAPKAPK2 (MK-2) (setting [4]) were > 200 µM and 116 µM, respectively.
`COC(=O)c1nn(-c2ccc(Cl)cc2)c2c1CCc1cc(OC)ccc1-2` [Example 159]: the IC50 at MK-3 (setting [3]) and at MAPKAPK2 (MK-2) (setting [4]) was > 200 µM in each case.
`NCCn1nc2c(c1C(=O)O)CCc1[nH]ncc1-2` [Example 4]: the results for the IC50 on MK-3 (setting [1]) and on MAPKAPK2 (MK-2) (setting [2]) were 63.3 µM and 2.43 µM, respectively.
With `O=C1NCCn2nc3c(c21)CCc1cnc(/C=C/c2ccccc2)cc1-3` [Example 36], the IC50 came out at 11.5 µM on MK-3 (read-out: MK-3 Avg. IC50) and 0.21 µM at MAPKAPK2 (MK-2) (read-out: MK-2 Avg. IC50).
Consider `NC(=O)c1nn(-c2ccccc2)c2c1CCc1[nH]ncc1-2` [Example 29], for which the values for the concentration for half-maximal inhibition (IC50) at MK-3 (setting [1]) and on MAPKAPK2 (MK-2) (setting [2]) were ≥ 200 µM and 112 µM, respectively.
Turning to `O=C(O)c1c2c(nn1CCCNCCc1ccc(/C=C/c3ccccc3)cc1)-c1cc(/C=C/c3ccccc3)ncc1CC2` [Example 35], the IC50 was > 20 µM at MK-3 (setting [5]) and 0.528 µM on MAPKAPK2 (MK-2) (setting [6]).
As for `NC(=O)c1[nH]nc2c1CCc1c-2cnn1-c1ccccc1` [Example 51], the IC50 on MK-3 (setting [1]) and on MAPKAPK2 (MK-2) (setting [2]) was ≥ 200 µM in each case.
As to `CCOC(=O)c1c2c(nn1C)-c1ccc(O)cc1CC2` [Example 157], the IC50 on MK-3 (setting [3]) and at MAPKAPK2 (MK-2) (setting [4]) was > 200 µM in each case.
Turning to `NCCCn1nc2c(c1C(=O)O)CCc1cnccc1-2` [Example 64], the half-inhibitory concentration (IC50) on MK-3 (read-out: MK-3 Avg. IC50) was found to be 22.8 µM; on MAPKAPK2 (MK-2) (read-out: MK-2 Avg. IC50) it was 0.62 µM.
On to `CC1Cc2cc(O)ccc2-c2n[nH]c(C(N)=O)c21` (stereo not drawn) [Example 68], for which the values for the IC50 on MK-3 (setting [3]) and on MAPKAPK2 (MK-2) (setting [4]) were 196 µM and 173 µM, respectively.
Take `O=C(O)c1[nH]nc2c1CCc1[nH]ncc1-2` [Example 45]: the IC50 on MK-3 (setting [1]) was ≥ 200 µM; at MAPKAPK2 (MK-2) (setting [2]), 188 µM.
For `CC(C)c1cccc(-c2ccc(CCNCCCn3nc4c(c3C(=O)O)CCc3cnccc3-4)cc2)c1` [Example 40], the IC50 at MK-3 (read-out: MK-3 Avg. IC50) amounted to 16.1 µM; on MAPKAPK2 (MK-2) (read-out: MK-2 Avg. IC50), 0.245 µM.
In the case of `O=C(O)c1c2c(nn1CCCO)-c1cn[nH]c1CC2` [Example 27], the IC50 at MK-3 (setting [1]) is ≥ 200 µM; at MAPKAPK2 (MK-2) (setting [2]), 103 µM.
Turning to `NC(=O)c1ccc(-n2nc(C(N)=O)c3c2-c2cn[nH]c2CC3)cc1` [Example 24], the IC50 on MK-3 (setting [1]) is ≥ 200 µM; on MAPKAPK2 (MK-2) (setting [2]) it was 78.4 µM.
For the compound `NCCCn1nc2c(c1C(=O)O)CCc1cnc(-c3ccc4c(c3)OCO4)nc1-2` [Example 2], the IC50 at MK-3 (Table 4, pyrimidylpyrazole MK-2 inhibitors, read-out: NK-3 Avg. IC50) was found to be 4.61 µM; on MAPKAPK2 (MK-2) (Table 4, pyrimidylpyrazole MK-2 inhibitors, read-out: MK-2 Avg. IC50), 0.295 µM.
`CNc1ccc(-c2cc3c(cc2O)CCc2c-3nn(CCCN)c2C(=O)O)cc1` [Example 21]: the values for the IC50 on MK-3 (setting [3]) and on MAPKAPK2 (MK-2) (setting [4]) were > 200 µM and 17.7 µM, respectively.
For `NCCCn1nc2c(c1C(=O)O)CCc1cnc(-c3cc(F)cc(F)c3)cc1-2` [Example 6], the figures for the IC50 on MK-3 (read-out: MK-3 Avg. IC50) and at MAPKAPK2 (MK-2) (read-out: MK-2 Avg. IC50) were 0.135 µM and 0.028 µM, respectively.
